Data set [1] has as its system Dkk1-LRP5-TCF-Luciferase.
Experimental: (§1) Biological Evaluation—Functional Dkk1-LRP5-TCF-Luciferase Assay in U2OS Cells
(§2) Frozen U2OS-Dkk1-HTS Reporter cells generation: U2OS Human Bone derived cells (Osteosarcoma) are grown in McCoy's 5A Medium (Modified), with L -glutamine (GIBCO Cat No. 16600-082)+1% Pen-Strep+5% FBS) plated at 1×10^7 cells/T175 cm flask. The next day, the cells are co-transfected overnight with the following plasmids: (a) Test reporter (16×TCF-TK-FireFly-Luci), (b) Internal Control Reporter (TK-Renilla-Luci), (c) Wnt3a and (d) Dkk1. GIBCO's Lipofectamine 2000 and OptiMEM are used for the transfection. After a minimum of 4 hr of transfection at 37° C., the plasmid-transfected cells are trypsinized, counted, and suspended in freezing medium (95% FBS+5% DMSO). The reporter cells are frozen at 1×10^7/ml concentrations, aliquoted into 0.5 ml or 2.5 ml/tube and stored at 70° C.
(§3) The following day, test compounds are added under HTS setup by Plate Track into 384 well plates (white, TC treated, Falcon plate) such that the final concentration of the compounds in 20 μL/well cell will be 5 μg/ml (final concentration of DMSO=0.25% and final compound concentration=20 μM). Vials of frozen reporter cells are thawed by warming the vial in a 37° C. water bath for 60-120 seconds with some shaking until the cells formed a suspension. The thawed cells are transferred into a cold 50 ml (or larger) tube and mixed well by gentle pipetting. The appropriate amount of cold Phenol Red Free RPMI medium-1640 (GIBCO, Cat #11835-030) with L-glutamine is added, both with ˜5% FBS (GIBCO-BRL, Cat. #16000-044), so that 20 μl of the final cell suspension will contain ˜5,000 cells. The cell dilution is done such that the final concentration of FBS is ˜5%.
(§4) Diluted cells (20 μl) are added into each well in a 384 well plate. The plate is incubated at 37° C. under 5% CO2 for ˜20 h. Bright-Glo substrate, 2.5 μl/well is added, and the Fire Fly Luciferase is measured using VLUX (60 second exposure) immediately after the substrate is added. Test compounds are dissolved in DMSO (100%) and added to specified wells. Raw luciferase signal data obtained as relative luminescence units (RLUs) for the test compounds are normalized to the signal of the mean of the sample reporter cell plate with DMSO.
The subject of data set [2] is Dkk1-LRP5-TCF-Luciferase. The data set can be described thus: Functional Dkk1-LRP5-TCF-Luciferase Assay in U2OS Cells. As to conditions: for fold induction at 2 µM: read-out: B = TCF ACTIVITY/DMSO CONTROL Fold induction @ 2.0 uM, 2.0 uM compound; for fold induction at 20 µM: read-out: C = TCF ACTIVITY/DMSO CONTROL Fold induction @ 20.0 uM, 20.0 uM compound; for A = MAX FOLD Induction/DMSO CONTROL: maximum fold induction over DMSO control.
Experimental: as §1, §2, §3, §4

Like-named read-outs stand apart in the source and are kept apart here.

With “6-{2-[4-(aminomethyl)piperidin-1-yl]pyrimidin-4-yl}-2-naphthyl acetate”, the “B = TCF ACTIVITY/DMSO CONTROL Fold induction @ 2.0 uM” value in data set [1] (2 µM) was found to be 1.435 fold. Also, the “C = TCF ACTIVITY/DMSO CONTROL Fold induction @ 20.0 uM” value in data set [1] (20 µM) is 1.995 fold.
`CN(c1nccc(-c2ccc3ccccc3c2)n1)C1CCN(c2ncccn2)CC1` [N-methyl-4-(2-naphthyl)-N-(1-pyrimidin-2-ylpiperidin-4-yl)pyrimidin-2-amine]: in data set [2] (Homo sapiens, U2OS), the fold induction at 2 µM came out at 1.7.
In the case of `CC(=O)N1CC[C@@H](Nc2nccc(-c3ccc4ccccc4c3)n2)C1` [N-[(3R)-1-acetylpyrrolidin-3-yl]-4-(2-naphthyl)pyrimidin-2-amine], in data set [2] (Homo sapiens, U2OS), the response was half-maximal at 14.2 µM (EC50), the fold induction at 2 µM stood at 1.21 and the fold induction at 20 µM amounted to 2.06. Further, in data set [2], the “A = MAX FOLD Induction/DMSO CONTROL” value is given as 2.980 fold.
For the compound `FC(F)(F)CN[C@H]1CCN(c2nccc(-c3ccc4ccccc4c3)n2)C1` [(3S)-1-[4-(2-naphthyl)pyrimidin-2-yl]-N-(2,2,2-trifluoroethyl)pyrrolidin-3-amine], in data set [2] (Homo sapiens, U2OS), the fold induction at 2 µM came to 0.83 and the fold induction at 20 µM is 1.38.
Taken in the same sequence, the figures for `CC(=O)NCC1CCN(c2nccc(-c3ccc4ccccc4c3)n2)C1` (centres unmarked) [N-({1-[4-(2-naphthyl)pyrimidin-2-yl]pyrrolidin-3-yl}methyl)acetamide] were 0.95 and 1.5.
The corresponding values for `NC(=O)NCC1CCN(c2nccc(-c3ccc4ccccc4c3)n2)CC1` [N-({1-[4-(2-naphthyl)pyrimidin-2-yl]piperidin-4-yl}methyl)urea] are 1.29 and 1.18.
The corresponding values for `c1ccc2cc(-c3ccnc(N4CC[C@H](N5CCCC5)C4)n3)ccc2c1` [(3′S)-1′-[4-(2-naphthyl)pyrimidin-2-yl]-1,3′-bipyrrolidine] are 1.45 and 0.83.
On to `CN(C)CCN[C@@H]1CCN(c2nccc(-c3ccc4ccccc4c3)n2)C1` [N,N-dimethyl-N′-{(3R)-1-[4-(2-naphthyl)pyrimidin-2-yl]pyrrolidin-3-yl}ethane-1,2-diamine], for which the fold induction at 2 µM in data set [2] (Homo sapiens, U2OS) was found to be 2.5.
For `CC(C)(C)OC(=O)N1CC[C@H](CNc2nccc(-c3ccc4ccccc4c3)n2)C1` [tert-butyl (3R)-3-({[4-(2-naphthyl)pyrimidin-2-yl]amino}methyl)pyrrolidine-1-carboxylate], in data set [2] (Homo sapiens, U2OS), the fold induction at 2 µM was 1.83.
On to `CCC(C)Nc1nccc(-c2ccc3ccccc3c2)n1` (centres unmarked) [N-(sec-butyl)-4-(2-naphthyl)pyrimidin-2-amine], for which, in data set [2] (Homo sapiens, U2OS), the fold induction at 2 µM amounted to 1.01 and the fold induction at 20 µM is 1.34.
For the compound `OCC1CCN(c2nccc(-c3ccc4ccccc4c3)n2)CC1` [{1-[4-(2-naphthyl)pyrimidin-2-yl]piperidin-4-yl}methanol], in data set [2] (Homo sapiens, U2OS), the fold induction at 2 µM is 1.81 and the fold induction at 20 µM stood at 0.02.
Regarding `CCN(CCO)C[C@@H]1CCN(c2nccc(-c3ccc4ccccc4c3)n2)C1` [2-[ethyl({(3S)-1-[4-(2-naphthyl)pyrimidin-2-yl]pyrrolidin-3-yl}methyl)amino]ethanol], in data set [2] (Homo sapiens, U2OS), the fold induction at 2 µM amounted to 3.48 and the fold induction at 20 µM was 0.04. In data set [2], the “A = MAX FOLD Induction/DMSO CONTROL” value was 3.540 fold.
As for `O=C(CN1CCN(c2nccc(-c3ccc4ccccc4c3)n2)CC1)N1CCOCC1` [4-({4-[4-(2-naphthyl)pyrimidin-2-yl]piperazin-1-yl}acetyl)morpholine], in data set [2] (Homo sapiens, U2OS), the fold induction at 2 µM is 1.03 and the fold induction at 20 µM is 2.1. Moreover, the “A = MAX FOLD Induction/DMSO CONTROL” value in data set [2] is recorded as 1.180 fold.
For the compound `c1ccc2cc(-c3ccnc(N4CCC(CN5CCCCC5)CC4)n3)ccc2c1` [4-(2-naphthyl)-2-[4-(piperidin-1-ylmethyl)piperidin-1-yl]pyrimidine], the EC50 in data set [2] is 8.59 µM. For the same compound, the “C = TCF ACTIVITY/DMSO CONTROL Fold induction @ 20.0 uM” value in data set [2] (20.0 uM compound, 20 µM) stood at 1.687 fold. For the same compound, in data set [2] (Homo sapiens, U2OS), the EC50 came to 8 µM, the fold induction at 2 µM turned out to be 1.09 and the fold induction at 20 µM was 2.8.
With `NCC1CCN(c2cncc(-c3ccc4ccccc4c3)n2)CC1` [1-{1-[6-(2-naphthyl)pyrazin-2-yl]piperidin-4-yl}methanamine], in data set [2] (Homo sapiens, U2OS), the half-maximal effective concentration (EC50) came out at 1.16 µM and the fold induction at 2 µM amounted to 1.6. Further, the “A = MAX FOLD Induction/DMSO CONTROL” value in data set [2] was 2.920 fold.
Regarding `CN(C)S(=O)(=O)NCC1CCN(c2nccc(-c3ccc4ccccc4c3)n2)CC1` [N,N-dimethyl-N′-({1-[4-(2-naphthyl)pyrimidin-2-yl]piperidin-4-yl}methyl)sulfamide], in data set [2] (Homo sapiens, U2OS), the fold induction at 2 µM is 1.05 and the fold induction at 20 µM came to 1.11.
With `N[C@H]1CC[C@H](Nc2nccc(-c3ccc4ccccc4c3)n2)CC1` [trans-N-[4-(2-naphthyl)pyrimidin-2-yl]cyclohexane-1,4-diamine], in data set [2] (Homo sapiens, U2OS), the concentration giving a half-maximal response (EC50) was 3.7 µM, the fold induction at 2 µM came out at 1.91 and the fold induction at 20 µM was determined as 3.95. For the same compound, in data set [2], the “A = MAX FOLD Induction/DMSO CONTROL” value was determined as 4.730 fold.
For `O=C(NC1CCCN(c2nccc(-c3ccc4ccccc4c3)n2)CC1)C(F)(F)F` (centres unmarked) [2,2,2-trifluoro-N-{1-[4-(2-naphthyl)pyrimidin-2-yl]azepan-4-yl}acetamide], in data set [2] (Homo sapiens, U2OS), the fold induction at 2 µM turned out to be 1.1 and the fold induction at 20 µM is 1.87.
Taken in the same sequence, the figures for `O=C1CCCN1CC1CCN(c2nccc(-c3ccc4ccccc4c3)n2)CC1` [1-({1-[4-(2-naphthyl)pyrimidin-2-yl]piperidin-4-yl}methyl)pyrrolidin-2-one] were 1.33 and 0.81.
For `CN[C@H]1CCN(c2nccc(-c3ccc4ccccc4c3)n2)C1` [(3S)—N-methyl-1-[4-(2-naphthyl)pyrimidin-2-yl]pyrrolidin-3-amine], the fold induction at 2 µM in data set [2] (Homo sapiens, U2OS) turned out to be 1.75.
With `c1ccc2cc(-c3ccnc(NC4CCCCC4)n3)ccc2c1` [N-cyclohexyl-4-(2-naphthyl)pyrimidin-2-amine], in data set [2] (Homo sapiens, U2OS), the fold induction at 2 µM came out at 1.21 and the fold induction at 20 µM came out at 1.51. For the same compound, the “A = MAX FOLD Induction/DMSO CONTROL” value in data set [2] is recorded as 1.230 fold.
On to `c1ccc2cc(-c3ccnc(N4CC[C@H](N5CCNCC5)C4)n3)ccc2c1` [4-(2-naphthyl)-2-[(3S)-3-piperazin-1-ylpyrrolidin-1-yl]pyrimidine], for which, in data set [2] (Homo sapiens, U2OS), the EC50 was 1.1 µM and the fold induction at 2 µM is 6.16. The “A = MAX FOLD Induction/DMSO CONTROL” value in data set [2] was found to be 7.520 fold.
With `O=C(NC1CCCCC1)N1CCC(CNc2nccc(-c3ccc4ccccc4c3)n2)CC1` [N-cyclohexyl-4-({[4-(2-naphthyl)pyrimidin-2-yl]amino}methyl)piperidine-1-carboxamide], in data set [2] (Homo sapiens, U2OS), the fold induction at 2 µM stood at 1.81 and the fold induction at 20 µM was found to be 0.067. Further, the “A = MAX FOLD Induction/DMSO CONTROL” value in data set [2] was determined as 1.230 fold.
For the compound `CC(C)(C)OC(=O)/N=C(/NCC1CCN(c2nccc(-c3ccc4ccccc4c3)n2)CC1)NC(=O)OC(C)(C)C` [di-tert-butyl {(Z)-[({1-[4-(2-naphthyl)pyrimidin-2-yl]piperidin-4-yl}methyl)amino]methylylidene}biscarbamate], in data set [2] (Homo sapiens, U2OS), the fold induction at 2 µM was found to be 0.94 and the fold induction at 20 µM stood at 1.35.
Regarding `O=C(NCCC1CCN(c2nccc(-c3ccc4ccccc4c3)n2)CC1)Nc1ccccc1` [N-(2-{1-[4-(2-naphthyl)pyrimidin-2-yl]piperidin-4-yl}ethyl)-N′-phenylurea], in data set [2] (Homo sapiens, U2OS), the fold induction at 2 µM came out at 1 and the fold induction at 20 µM is 1.5.
On to `c1ccc2cc(-c3ccnc(N4CC[C@@H](n5ccnc5)C4)n3)ccc2c1` [2-[(3R)-3-(1H-imidazol-1-yl)pyrrolidin-1-yl]-4-(2-naphthyl)pyrimidine], for which, in data set [2] (Homo sapiens, U2OS), the fold induction at 2 µM is 1.31 and the fold induction at 20 µM stood at 3.9. Further, the “A = MAX FOLD Induction/DMSO CONTROL” value in data set [2] came out at 1.960 fold.
For `O=C(c1ccco1)N1CCN(c2nccc(-c3ccc4ccccc4c3)n2)CC1` [2-[4-(2-furoyl)piperazin-1-yl]-4-(2-naphthyl)pyrimidine], in data set [2] (Homo sapiens, U2OS), the fold induction at 2 µM is 1.49 and the fold induction at 20 µM was 3.62. In addition, the “A = MAX FOLD Induction/DMSO CONTROL” value in data set [2] came to 1.630 fold.
With `c1ccc(CNc2nccc(-c3ccc4ccccc4c3)n2)cc1` [N-benzyl-4-(2-naphthyl)pyrimidin-2-amine], the fold induction at 2 µM in data set [2] (Homo sapiens, U2OS) was determined as 1.71.
In the case of `c1ccc2cc(-c3ccnc(N[C@H]4CCNC4)n3)ccc2c1` [4-(2-naphthyl)-N-[(3S)-pyrrolidin-3-yl]pyrimidin-2-amine], in data set [2] (Homo sapiens, U2OS), the fold induction at 2 µM amounted to 2.84 and the fold induction at 20 µM worked out at 0.89. Moreover, in data set [2], the “A = MAX FOLD Induction/DMSO CONTROL” value was found to be 1.360 fold.
In the case of `CC(C)(O)[C@H](N)C1CCN(c2nccc(-c3ccc4ccccc4c3)n2)CC1` [(1R)-1-amino-2-methyl-1-{1-[4-(2-naphthyl)pyrimidin-2-yl]piperidin-4-yl}propan-2-ol], the fold induction at 2 µM in data set [2] (Homo sapiens, U2OS) is 1.78.
In the case of `c1ccc2cc(-c3ccnc(N4CC[C@@H](N5CCOCC5)C4)n3)ccc2c1` [4-{(3R)-1-[4-(2-naphthyl)pyrimidin-2-yl]pyrrolidin-3-yl}morpholine], in data set [2] (Homo sapiens, U2OS), the fold induction at 2 µM turned out to be 1.2 and the fold induction at 20 µM stood at 2.45. The “A = MAX FOLD Induction/DMSO CONTROL” value in data set [2] is on record as 1.290 fold.
Turning to `CN(C)[C@@H]1CCN(C[C@@H]2CCN(c3nccc(-c4ccc5ccccc5c4)n3)C2)C1` [(3R)—N,N-dimethyl-1-({(3S)-1-[4-(2-naphthyl)pyrimidin-2-yl]pyrrolidin-3-yl}methyl)pyrrolidin-3-amine], in data set [2] (Homo sapiens, U2OS), the fold induction at 2 µM was determined as 1.53 and the fold induction at 20 µM turned out to be 0.03.
Regarding `O=C(N[C@@H]1CCN(c2nccc(-c3ccc4ccccc4c3)n2)C1)N1CCOCC1` [N-{(3R)-1-[4-(2-naphthyl)pyrimidin-2-yl]pyrrolidin-3-yl}morpholine-4-carboxamide], in data set [2] (Homo sapiens, U2OS), the fold induction at 2 µM came to 1.91.
`c1ccc2cc(-c3ccnc(N4CCC(Cn5ccnc5)CC4)n3)ccc2c1` [2-[4-(1H-imidazol-1-ylmethyl)piperidin-1-yl]-4-(2-naphthyl)pyrimidine]: in data set [2] (Homo sapiens, U2OS), the EC50 stood at 11.7 µM, the fold induction at 2 µM came out at 1.13 and the fold induction at 20 µM turned out to be 3.34. Moreover, in data set [2], the “A = MAX FOLD Induction/DMSO CONTROL” value came out at 4.630 fold.

These data come from patent US20090054392A1, “NAPHTHYLPYRIMIDINE, NAPHTHYLPYRAZINE AND NAPHTHYLPYRIDAZINE ANALOGS AND THEIR USE AS AGONISTS OF THE WNT-BETA-CATENIN CELLULAR MESSAGING SYSTEM” (Wyeth, priority 2007, published 2009).
